Entries after “also recorded” stand apart in the source; their conditions may differ.
Key:
[1] = phase III clinical study results announced in November 2020, moderate to severe plaque psoriasis; cited from earlier work
[2] = systemic lupus erythematosus and Crohn's disease; cited from earlier work
[3] = Compressibility (ENERPAC manual tablet press, tablet hardness and tensile strength); assay type: physicochemical; settings: 80 mg, φ6 mm round tooling, 10 KN; for Diameter / Hardness / Thickness: after 24 h at room temperature; for Tensile strength: calculated T=2H/πDL*9.8
Procedure: ENERPAC manual tablet press was used for compression. 80 mg of Form CSI and Form A were weighed and added into the dies of a φ6 mm round tooling, compressed at 10 KN manually, then stored at room temperature for 24 h until complete elastic recovery. Hardness (H) was tested with an intelligent tablet hardness tester. Diameter (D) and thickness (L) were tested with caliper. Tensile strength of the powder was calculated with the following formula: T=2H/πDL*9.8. Under a certain force, the greater the tensile strength, the better the compressibility.
ENERPAC manual tablet press was used for compression. 80 mg of Form CSII and Form A were weighed and added into the dies of a φ6 mm round tooling, compressed at 10 KN manually, then stored at room temperature for 24 h until complete elastic recovery. Hardness (H) was tested with an intelligent tablet hardness tester. Diameter (D) and thickness (L) were tested with caliper. Tensile strength of the powder was calculated with the following formula: T=2H/πDL*9.8. Under a certain force, the greater the tensile strength, the better the compressibility.

[4] = Adhesiveness (material sticking to the punch during compression); assay type: physicochemical; settings: for Adhesiveness (in words): compared with Form A where a comparison is stated
Procedure: Approximately 30 mg of Form CSII and Form A were weighed and then added into the dies of φ8 mm round tooling, compressed at 10 kN and held for 30 s. The material sticking to the punch was recorded. The compression was repeated twice and the cumulative amount, maximum amount and average amount of material sticking to the punch during the compression were recorded.

[5] = Thermodynamic stability: suspension of Form A plus Form CSI stirred at 5 °C, solid checked by XRPD; assay type: physicochemical
Procedure: A certain amount of Form A was weighed into glass vail and 0.3 mL of solvent mixtures of water and acetonitrile, water and methanol, or water and acetone according to table 8 were added to form suspensions. Approximately 6 mg of Form CSI of the present disclosure was added in the suspension. After mixing at 5° C. for 5 minutes, a portion of the solid was taken out and tested by XRPD. After the suspension was stirred at 5° C. for 6 days, a portion of the solid was taken out and tested by XRPD again.

[6] = Storage stability at 25 °C/60% RH and 40 °C/75% RH, crystalline form by XRPD and chemical purity by HPLC; assay type: physicochemical; settings: for Purity: HPLC; for Crystalline form after storage: XRPD
Procedure: Approximately 5 mg of Form CSI in the present disclosure was stored under different conditions of 25° C./60% RH and 40° C./75% RH. Crystalline form and chemical purity were checked by XRPD and HPLC, respectively.
Approximately 5 mg of Form CSII in the present disclosure was stored under different conditions of 25° C./60% RH and 40° C./75% RH. Crystalline form and chemical purity were checked by XRPD and HPLC, respectively.

[7] = Physical stability under pressure (tableting), XRPD before and after; assay type: physicochemical
Description: A certain amount of Form CSI was compressed into tablets under 3 kN, 7 kN and 14 kN with suitable tableting die. Crystalline forms before and after tableting were checked by XRPD.
A certain amount of Form CSII was compressed into tablets under 5 kN, 10 kN and 20 kN with suitable tableting die. Crystalline forms before and after tableting were checked by XRPD.

[8] = Physical stability on manual grinding, XRPD before and after; assay type: physicochemical; settings: ground manually for 5 minutes in a mortar
Procedure: Form CSII was grounded manually for 5 minutes in a mortar. Crystalline form before and after grinding were checked by XRPD.

[9] = about 30 mg, φ8 mm round tooling, 10 kN held for 30 s
[10] = 25 °C/60% RH, open and sealed, 6 months
[11] = 25 °C/60% RH, sealed (closed), 6 months
[12] = 40 °C/75% RH, open and sealed, 6 months
[13] = 40 °C/75% RH, sealed (closed), 6 months

| SMILES | Compressibility / behaviour during tablet pressing (in words) [3] | Average amount of material sticking to the punch [4, 9] | Maximum amount of material sticking to the punch [4, 9] | Adhesiveness (in words) [4] | Time for which the crystalline form is stable (does not change) ([6]; 25 °C/60% RH, open and sealed) | Change of chemical purity during storage (in words) [6, 10] | Crystalline form after storage ([6]; 25 °C/60% RH, open, 6 months) | Crystalline form after storage [6, 11] | Time for which the crystalline form is stable (does not change) ([6]; 40 °C/75% RH, open and sealed) | Change of chemical purity during storage (in words) [6, 12] | Crystalline form after storage ([6]; 40 °C/75% RH, open, 6 months) | Crystalline form after storage [6, 13] | Diameter [3] | Hardness [3] | Thickness [3] | Tensile strength [3] | further results |
| --- | --- | --- | --- | --- | --- | --- | --- | --- | --- | --- | --- | --- | --- | --- | --- | --- | --- |
| [2H]C([2H])([2H])NC(=O)c1nnc(NC(=O)C2CC2)cc1Nc1cccc(-c2ncn(C)n2)c1OC [BMS-986165, 6-(cyclopropanecarboxamido)-4-((2-methoxy-3-(1-methyl-1H-1,2,4-triazol-3-yl)phenyl)amino)-N-(methyl-d3)pyridazine-3-carboxamide] | – | – | – | – | – | – | – | – | – | – | – | – | – | – | – | – | Clinical effect [1]: positive clinical effects; Therapeutic effect [2]: good therapeutic effects |
| [2H]C([2H])([2H])NC(=O)c1nnc(NC(=O)C2CC2)cc1Nc1cccc(-c2ncn(C)n2)c1OC [Form A, 6-(cyclopropanecarboxamido)-4-((2-methoxy-3-(1-methyl-1H-1,2,4-triazol-3-yl)phenyl)amino)-N-(methyl-d3)pyridazine-3-carboxamide, reference compound] | poor compressibility; also recorded: splintering | 0.190 mg | 0.260 mg | high adhesiveness | – | – | – | – | – | – | – | – | – | – | – | – | Adhesion quantity of Form A relative to that of Form CSII [4, 9]: 3.2 times |
| [2H]C([2H])([2H])NC(=O)c1nnc(NC(=O)C2CC2)cc1Nc1cccc(-c2ncn(C)n2)c1OC [Form CSI, 6-(cyclopropanecarboxamido)-4-((2-methoxy-3-(1-methyl-1H-1,2,4-triazol-3-yl)phenyl)amino)-N-(methyl-d3)pyridazine-3-carboxamide] | better compressibility compared with Form A | 0.105 mg | 0.130 mg | superior to that of Form A | at least 6 months | remains substantially unchanged | CSI | CSI | at least 6 months | remains substantially unchanged | CSI | CSI | 6.06 mm | 7.87 kgf | 2.39 mm | 3.39 MPa | Crystalline form of solid after stirring time 5 minutes ([5]; mixture of Form A and about 6 mg Form CSI suspended in 0.3 mL water/acetonitrile, water/methanol or water/acetone (samples 1-7), 5 minutes, XRPD): Form A +; Crystalline form of solid after stirring time 6 days ([5]; mixture of Form A and about 6 mg Form CSI suspended in 0.3 mL water/acetonitrile, water/methanol or water/acetone (samples 1-7), 6 days, XRPD): CSI; Stability relative to Form A (in words) ([5]; water/acetonitrile, water/methanol or water/acetone): better stability than Form A; Chemical purity during storage [6, 10]: above 98.0%; Purity ([6]; 25 °C/60% RH, open, 6 months): 98.76%; Purity ([6]; 25 °C/60% RH, sealed, 6 months): 98.79%; Purity ([6]; 40 °C/75% RH, open, 6 months): 98.74%; Purity ([6]; 40 °C/75% RH, sealed, 6 months): 98.73%; Purity ([6]; initial): 98.13%; Crystalline state after tableting ([7]; tablets compressed under 3 kN, 7 kN and 14 kN): does not change; also recorded: doesn't change |
| [2H]C([2H])([2H])NC(=O)c1nnc(NC(=O)C2CC2)cc1Nc1cccc(-c2ncn(C)n2)c1OC [Form CSII, 6-(cyclopropanecarboxamido)-4-((2-methoxy-3-(1-methyl-1H-1,2,4-triazol-3-yl)phenyl)amino)-N-(methyl-d3)pyridazine-3-carboxamide] | better compressibility compared with Form A | 0.06 mg | 0.06 mg | superior to that of Form A | at least 6 months | remains substantially unchanged | Form CSII | Form CSII | at least 6 months | remains substantially unchanged | Form CSII | Form CSII | 6.08 mm | 4.24 kgf | 2.30 mm | 1.89 MPa | Crystalline state after tableting ([7]; tablets compressed under 5 kN, 10 kN and 20 kN): does not change; Crystalline state after grinding [8]: does not change; also recorded: doesn't change |
